Reference: patent US9051579B2, “Herbicide-tolerant plants through bypassing metabolic pathway” (Bayer S.A.S., priority 2000, dated 2015)

Legend:
[1] = system: Arabidopsis seeds; assay: Germination of Arabidopsis seeds on MS medium with DKN, with or without homogentisate; format: in vivo
Protocol: 1 Murashige and Skoog medium (T. Murashige and F. Skoog, 1962. A revised medium for a rapid growth and bioassays with tobacco tissue culture. Physiol. Plant. 15, 473-479), control experiment for germination
2 MS medium plus DKN at a dose of 1 ppm
3 MS medium plus DKN at the same dose+homogentisate at a concentration of 5 mM.

[2] = system: HPP oxidase (HPPO); assay: HPP oxidase activity assay (colorimetric / HPLC), influence of added compounds; format: biochemical, Arthrobacter globiformis; details: 115 ppm
Description: The enzyme reaction is stopped by adding 2,4-dinitrophenylhydrazine (2,4-DNPH), in solution in 2 M HCl. The 2, 4-DNPH reacts with the ketone function in the alpha position of a carboxylic function (example: HPP). […] When the HPP is completely converted to 4-HPA during the enzyme reaction, the hydrazone cannot form, and the characteristic yellow color of 2,4-DHPA is therefore obtained in basic medium. If the HPP is not completely converted to 4-HPA during the enzyme reaction, the formation of hydrazone is possible. These hydrazones are brown in color in basic medium. A variation in color between these two extremes is obtained as a function of the amount of HPP consumed. The absorption measurements are carried out at 445 or 450 nm. In order to make this assay more easy to handle, we adapted it to the 96-well microplate format. The reaction mixture comprises GSH (900 μM); HPP (135 μM); TPP (1.8 mM); MgCl2 (4.5 mM); FAD (4 μM); potassium phosphate buffer (90 mM) pH 7.4. The mixture is kept on ice. 50 μL of the test fraction and 150 μL of reaction mixture are placed in each well. After 20 min at 30° C., the enzyme reaction is stopped with 13 μL of 2,4-DNPH solution (0.1% in 2 M HCl). The mixture is left to react for 20 min at ambient temperature. […] To prepare the standard range, reaction mixtures with varying concentrations of HPP are prepared. […]

[3] = medium 2: MS medium plus DKN at 1 ppm

Row | SMILES | germination and pigmentation of the plantlet [1, 3] | survival of the plantlets [1, 3] | germination and pigmentation of the plantlet ([1]; medium 3: MS medium plus DKN 1 ppm + homogentisate 5 mM) | later development of the plants ([1]; medium 3: MS medium plus DKN 1 ppm + homogentisate 5 mM, as homogentisate in the medium decreases) | inhibition of the HPPO [2]
1 | CS(=O)(=O)c1cc(C(F)(F)F)ccc1C(=O)C(C#N)C(=O)C1CC1 (centres unmarked) [DKN] | germination occurs, but the plantlet which emerges is white, the two cotyledons exhibiting no pigmentation | die in a few days | germination occurs normally, the cotyledons are clearly green | the first symptoms of bleaching appear and plant growth stops, they end up dying | 
2 | CC(C)C1(C)N=C(c2ncccc2C(=O)O)NC1=O (centres unmarked) [imazapyr] |  |  |  |  | not inhibited
